# In paper PMC12177760, “In Silico Discovery of a Novel Antiviral Scaffold for SARS-CoV‑2 Targeting the Spike Glycoprotein through the Fatty Acid Binding Pocket” (ACS Omega, 2025):
# What was measured:
# [1] = system: RBD-ACE2 binding; settings: ref not given, cited from earlier work
# [2] = target: S-ACE2 interaction (SARS-CoV-2 S protein trimer, Wuhan strain, with biotinylated-ACE2) (Severe acute respiratory syndrome coronavirus 2, UniProt P0DTC2); test: biochemical; assay type: binding; settings: for inhibition of the S-ACE2 interaction: 200 μM
# [3] = system: SARS-CoV-2 original Wuhan strain (INMI1 P4) in Vero E6 cells; test: microbe, parasite or virus in culture; assay type: cell-based; settings: for inhibition at 33 µM: Severe acute respiratory syndrome coronavirus 2, Vero C1008, 72 h; for inhibition at 33 µM / inhibition at 22 µM: read-out: inhibition of viral induced CPE; for inhibition at 22 µM: Severe acute respiratory syndrome coronavirus 2, Vero C1008
# [4] = system: SARS-CoV-2 Wuhan strain; assay type: cell-based
# [5] = system: SARS-CoV-2 Wuhan strain; assay type: cell-based; remark: listed apart in the source
# [6] = system: Vero E6 cells; settings: 200 μM
# [7] = in vitro; settings: African green monkey
smiles,measurement,setting,value
"CCCCC/C=C\C/C=C\CCCCCCCC(=O)O [LA, linoleic acid, reference compound]",inhibition of the RBD-ACE2 binding,"[1]; 8.9 mM, in vitro assays",100%
same,inhibition at 200 µM,[2],84%
CC(NC(=O)CCC(=O)N1CCC(c2ccccc2)=N1)c1ccc(-c2ccccc2)cc1 (stereo not shown) [compound 32],inhibition at 33 µM,[3],27%
Cc1cccc(OCC(=O)N2CC=C(c3c[nH]c4ccccc34)CC2)c1C [compound 15],inhibition at 22 µM,[3],10%
same,inhibition at 200 µM,[2],20%
CS(=O)(=O)N1CCCc2cc(-c3csc(-c4cccc(C(N)=O)c4)n3)ccc21 [compound 7],inhibition at 200 µM,[2],20%
CC(=O)c1ccc(N2CCN(Cn3nc4cc(C)c5ccccc5n4c3=S)CC2)cc1 [compound 1],inhibition at 22 µM,[3],10%
Cc1ccc(C(C)N(C)C(=O)CCC(=O)N2CCC(c3ccccc3)=N2)cc1 (stereo not shown) [compound 27],"antiviral activity (qualitative structure-activity relationship, CPE)",[3],activity maintained
Cc1nc(-c2ccc(C(C)NC(=O)CCC(=O)N3CCC(c4ccccc4)=N3)cc2)cs1 (stereo not shown) [compound 20],inhibition at 33 µM,[3],34%
CC(c1ccc(-n2cncn2)cc1)N(C)C(=O)CCC(=O)N1CCC(c2ccccc2)=N1 (stereo not shown) [compound 36],inhibition at 33 µM,[3],91%
same,EC50,"[3]; Severe acute respiratory syndrome coronavirus 2, Vero C1008, read-out: EC50 (inhibition of SARS-CoV-2-induced CPE)",0.29 µM
same,detected viral genomic copies,[4],16.9 copies/20 μL
same,reduction in number of viral genome copies in the supernatant,[4]; 33 μM,89%
same,"PFU/mL, drug",[5],2.49 × 10^7 PFU/mL
same,reduction of replication-capable lytic virions (TCID50),[5],90%
CCn1c2ccccc2c2cc(NC(=O)c3ccc(OCC(N)=O)cc3)ccc21 [compound 4],reduction in viral induced CPE,[3]; 67 μM,over 10%
same,inhibition at 200 µM,[2],28%
N#Cc1ccc(C2(NC(=O)CCC(=O)N3CCC(c4ccccc4)=N3)CC2)cc1 [compound 35],inhibition at 33 µM,[3],16%
"CCCCCCCCCCCCCCCC(=O)NCCO [PEA, palmitoylethanolamide, reference compound]",reduction of RBD binding with ACE2,[1],~50%
same,inhibition at 200 µM,[2],17%
O=C(Nc1nc(-c2ccc3c(c2)CCC3)cs1)c1ccc(CSc2nnc[nH]2)cc1 [compound 12],inhibition of the S-ACE2 interaction,[2],surpassed PEA
O=C(CCc1nc2ccccc2s1)N1CCC(CCc2ccc(O)cc2)CC1 [compound 9],inhibition at 200 µM,[2],20%
CC(OC(=O)CCC(=O)N1CCC(c2ccccc2)=N1)c1ccc(-n2cncn2)cc1 (stereo not shown) [compound 34],inhibition at 33 µM,[3],19%
CC(NC(=O)CCC(=O)N1CCC(c2ccccc2)=N1)c1ccc(-n2cncn2)cc1 (stereo not shown) [compound 17],reduction in viral induced CPE,[3]; 2.5 μM,over 10%
same,inhibition at 33 µM,[3],23%
same,cytotoxicity,[6],strong cytotoxicity
same,CC50,[7],90 µM
same,inhibition at 200 µM,[2],~20%
same,inhibition of the S-ACE2 interaction,[2],surpassed PEA
same,decrease in the number of infectious virions released,[5],81%
CC(NC(=O)CCC(=O)N1CCN(c2ccccc2)CC1)c1ccc(-n2cncn2)cc1 (stereo not shown) [compound 31],inhibition at 33 µM,[3],8%
